Where two headings read alike, the source gives them in different places.
Key:
[1] = test system: patients undergoing percutaneous coronary intervention (PCI); details: for Angiographic complications (site reported): Abrupt vessel closure / Angiographic complications (site reported): Acute stent thrombosis / Angiographic complications (site reported): Need for urgent CABG / Angiographic complications (site reported): New thrombus or suspected thrombus / Angiographic complications (site reported): Threatened abrupt closure / Angiographic complications (site reported): Unsuccessful procedure: index PCI
Method: The diagnosis of non-ST-segment elevation myocardial infarction required troponin I or T greater than the upper limit of normal within 24 hours of randomization (or if troponin results were unavailable at that time, creatine kinase-myocardial band isoenzyme [CK-MB] greater than the upper limit of normal). The diagnosis of unstable angina required ischemic chest discomfort occurring at rest and lasting ≧10 minutes within the 24 hours prior to randomization and dynamic electrocardiographic changes; age ≧65 years and/or diabetes mellitus were also required.
(§1) The primary efficacy endpoint was the composite of mortality, myocardial infarction, or ischemia-driven revascularization at 48 hours. The primary analysis was performed on a modified intent-to-treat population. Confirmatory analyses were performed on an intent-to-treat population. Secondary endpoints included the individual rates of mortality, myocardial infarction, new Q-wave myocardial infarction, ischemia-driven revascularization, abrupt vessel closure, or stroke at 48 hours. Mortality at 30 days and 1 year was also recorded. The clinical events committee adjudicated myocardial infarction, Q-wave myocardial infarction, ischemia-driven revascularization, stent thromboses, and stroke (ischemic or hemorrhagic). The definition of stent thrombosis was similar to the Academic Research Consortium definition of definite stent thrombosis. After review of the prespecified analyses, two exploratory endpoints less reliant on periprocedural biomarker ascertainment were examined. The exploratory endpoints, which were composed of prespecified and adjudicated endpoints, were the composite of mortality, Q-wave myocardial infarction, or ischemia-driven revascularization and the composite of mortality, Q-wave myocardial infarction, or stent thrombosis. Bleeding and adverse events through 48 hours were compared.
(§2) All efficacy analyses were performed on the modified intent-to-treat population, defined as all randomized patients who received at least one dose of study drug and underwent the index PCI. All safety-related analyses were performed on the safety population, which included all patients who received at least one dose of assigned study drug. Patients in the safety analyses were assigned to a treatment arm based on treatment actually received, not as randomized. Intent-to-treat analyses are also presented for full disclosure of results. All statistical tests were two-tailed using a level of significance of 0.05. […] Logistic regression was also used to analyze the majority of the remaining secondary endpoints.

[2] = test system: patients undergoing percutaneous coronary intervention (PCI); assay: Example 1: bleeding and adverse events through 48 hours;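 also: bleeding events compared through 48 h in the safety population, meaning patients given at least one study drug dose and grouped by treatment actually received, two-tailed tests at 0.05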
Method: as §1, §2

[3] = test system: patients undergoing percutaneous coronary intervention (PCI); details: human, in vivo, 48 h
Method: as §1, §2

[4] = 48-hour, Safety population, cangrelor vs comparator arm
[5] = 48-hour, Safety population, exploratory
[6] = 48-hour, safety population, cangrelor vs placebo

CSCCNc1nc(SCCC(F)(F)F)nc2c1ncn2[C@@H]1O[C@H](COP(=O)(O)OP(=O)(O)C(Cl)(Cl)P(=O)(O)O)[C@@H](O)[C@H]1O [Cangrelor, cangrelor]
OR (95% CI): All-cause mortality [1, 4]: 0.385 (0.161, 0.924)
OR (95% CI): IDR [1, 4]: 0.754 (0.414, 1.373)
OR (95% CI): MI [1, 4]: 0.901 (0.729, 1.113)
OR (95% CI): Mortality/MI/IDR [1, 4]: 0.858 (0.699, 1.053)
OR (95% CI): Mortality/Q-wave MI/IDR [1, 4]: 0.564 (0.341, 0.935)
OR (95% CI): Mortality/Q-wave MI/Stent thrombosis [1, 4]: 0.395 (0.212, 0.735)
OR (95% CI): Q-wave MI [1, 4]: 0.441 (0.136, 1.435)
OR (95% CI): Stent thrombosis [1, 4]: 0.310 (0.113, 0.846)
OR (95% CI): Stroke [1, 4]: 1.394 (0.442, 4.396)
Mortality/Q-wave MI/IDR [1, 5]: 24 (0.9) no. (%)
Mortality/Q-wave MI/Stent thrombosis [1, 5]: 14 (0.5) no. (%)
All-cause mortality ([1]; 48-hour, safety population): 7 (0.3) no. (%)
IDR ([1]; 48-hour, safety population): 19 (0.7) no. (%)
MI ([1]; 48-hour, safety population): 176 (6.6) no. (%)
Mortality/MI/IDR ([1]; 48-hour, safety population): 185 (7.0) no. (%)
Q-wave MI ([1]; 48-hour, safety population): 4 (0.2) no. (%)
Stent thrombosis ([1]; 48-hour, safety population): 5 (0.2) no. (%)
Stroke ([1]; 48-hour, safety population): 7 (0.3) no. (%)
Rates of stent thrombosis ([1]; 48 hours): 0.2%
rate of mortality at 48 hours ([1]; 48 hours): 0.2%
primary endpoint (mortality, myocardial infarction, or ischemia-driven revascularization), patients with event ([1]; 48 hours, MITT): 7.0%
Angiographic complications (site reported): Abrupt vessel closure ([1]; ITT): 13 (0.5)
Angiographic complications (site reported): Acute stent thrombosis ([1]; ITT): 1 (0.0)
Angiographic complications (site reported): Need for urgent CABG ([1]; ITT): 5 (0.2)
Angiographic complications (site reported): New thrombus or suspected thrombus ([1]; ITT): 14 (0.5)
Angiographic complications (site reported): Threatened abrupt closure ([1]; ITT): 10 (0.4)
Angiographic complications (site reported): Unsuccessful procedure ([1]; ITT): 84 (3.1)
Angiographic complications (site reported): Abrupt vessel closure ([1]; MITT): 13 (0.5)
Angiographic complications (site reported): Acute stent thrombosis ([1]; MITT): 1 (0.0)
Angiographic complications (site reported): Need for urgent CABG ([1]; MITT): 5 (0.2)
Angiographic complications (site reported): New thrombus or suspected thrombus ([1]; MITT): 14 (0.5)
Angiographic complications (site reported): Threatened abrupt closure ([1]; MITT): 10 (0.4)
Angiographic complications (site reported): Unsuccessful procedure ([1]; MITT): 81 (3.1)
Angiographic complications (site reported): Abrupt vessel closure ([1]; Safety population): 13 (0.5)
Angiographic complications (site reported): Acute stent thrombosis ([1]; Safety population): 1 (0.0)
Angiographic complications (site reported): Need for urgent CABG ([1]; Safety population): 5 (0.2)
Angiographic complications (site reported): New thrombus or suspected thrombus ([1]; Safety population): 14 (0.5)
Angiographic complications (site reported): Threatened abrupt closure ([1]; Safety population): 10 (0.4)
Angiographic complications (site reported): Unsuccessful procedure ([1]; Safety population): 81 (3.1)
primary efficacy endpoint ([1]; subgroup of 1659 patients without baseline troponin elevation): 4.6%
OR, primary efficacy endpoint ([1]; subgroup of 1659 patients without baseline troponin elevation, cangrelor vs placebo): 0.62
Thrombocytopenia ([2]; 48-hour, safety population): 2 (0.1) no. (%)
Odds Ratio (95% CI): ACUITY criteria Major bleeding [2, 6]: 1.607 (1.232, 2.096)
Odds Ratio (95% CI): ACUITY criteria Minor bleeding [2, 6]: 1.335 (1.120, 1.592)
Odds Ratio (95% CI): Access site bleeding requiring radiologic or surgical intervention [2, 6]: 0.796 (0.314, 2.019)
Odds Ratio (95% CI): GUSTO criteria Moderate bleeding [2, 6]: 1.536 (0.762, 3.093)
Odds Ratio (95% CI): GUSTO criteria Severe/life-threatening bleeding [2, 6]: 1.495 (0.531, 4.205)
Odds Ratio (95% CI): Hematoma <5 cm at puncture site [2, 6]: 1.270 (0.992, 1.626)
Odds Ratio (95% CI): Hematoma ≧5 cm at puncture site [2, 6]: 1.640 (1.214, 2.216)
Odds Ratio (95% CI): Hemodynamic compromise [2, 6]: 1.395 (0.442, 4.400)
Odds Ratio (95% CI): Intracranial hemorrhage [2, 6]: 1.992 (0.180, 21.978)
Odds Ratio (95% CI): Oozing at puncture site [2, 6]: 1.385 (1.052, 1.825)
rates of red blood cell transfusion ([2]; 48 hours): 0.9%
incidence of dyspnea ([2]; human, in vivo, 48 h): 1.4%
rate of arrhythmia ([2]; human, in vivo, 48 h): 2.3%
ACUITY criteria Major bleeding [3]: 147 (5.5) no. (%)
ACUITY criteria Minor bleeding [3]: 320 (12.0) no. (%)
Access site bleeding requiring radiologic or surgical intervention [3]: 8 (0.3) no. (%)
Any blood transfusion [3]: 26 (1.0) no. (%)
Any platelet transfusion [3]: 4 (0.2) no. (%)
Any red blood cell transfusion [3]: 25 (0.9) no. (%)
Drop in hemoglobin and/or hematocrit [3]: 33 (1.2) no. (%)
Ecchymosis [3]: 95 (3.6) no. (%)
Epistaxis [3]: 6 (0.2) no. (%)
GUSTO criteria Mild bleeding [3]: 427 (16.0) no. (%)
GUSTO criteria Moderate bleeding [3]: 20 (0.8) no. (%)
GUSTO criteria Severe/life-threatening bleeding [3]: 9 (0.3) no. (%)
Hematoma <5 cm at puncture site [3]: 150 (5.6) no. (%)
Hematoma ≧5 cm at puncture site [3]: 115 (4.3) no. (%)
Hemodynamic compromise [3]: 7 (0.3) no. (%)
Intracranial hemorrhage [3]: 2 (0.1) no. (%)
Intraocular [3]: 0 (0.0) no. (%)
Odds Ratio (95% CI): Any blood transfusion [3]: 1.624 (0.869, 3.034)
Odds Ratio (95% CI): Any platelet transfusion [3]: 1.992 (0.365, 10.887)
Odds Ratio (95% CI): Any red blood cell transfusion [3]: 1.665 (0.876, 3.166)
Odds Ratio (95% CI): Drop in hemoglobin and/or hematocrit [3]: 0.938 (0.581, 1.514)
Odds Ratio (95% CI): Ecchymosis [3]: 1.684 (1.207, 2.349)
Odds Ratio (95% CI): Epistaxis [3]: 0.497 (0.186, 1.325)
Odds Ratio (95% CI): GUSTO criteria Mild bleeding [3]: 1.442 (1.232, 1.688)
Odds Ratio (95% CI): Reoperation for bleeding [3]: 0.995 (0.062, 15.924)
Odds Ratio (95% CI): Retroperitoneal [3]: 1.992 (0.180, 21.978)
Odds Ratio (95% CI): TIMI criteria Major bleeding [3]: 0.442 (0.136, 1.436)
Odds Ratio (95% CI): TIMI criteria Minor bleeding [3]: 1.372 (0.719, 2.618)
Odds Ratio (95% CI): Thrombocytopenia [3]: 0.663 (0.111, 3.973)
Oozing at puncture site [3]: 125 (4.7) no. (%)
Reoperation for bleeding [3]: 1 (0.0) no. (%)
Retroperitoneal [3]: 2 (0.1) no. (%)
TIMI criteria Major bleeding [3]: 4 (0.2) no. (%)
TIMI criteria Minor bleeding [3]: 22 (0.8) no. (%)

Reference: patent publication US8680052B1, “Methods of treating, reducing the incidence of, and/or preventing ischemic events” (The Medicines Company, priority 2013, dated 2014)
